Values of other authors as cited in patent US6599496B2, “Endoscopy tissue stain” (Chek-Med Systems, Inc., priority 1999, dated 2003).

System: colon
Settings: Hammond et al.

Compound: CC1(C)C(/C=C/C=C/C=C/C=C2\N(CCCCS(=O)(=O)O)c3ccc4ccccc4c3C2(C)C)=[N+](CCCCS(=O)(=O)[O-])c2ccc3ccccc3c21 [Indocyanine green]
- permanence of the marking of lesions of the colon: does not have long term permanence
